{"source": "paper PMC11858513", "about": "“Antibiofilm Activities of Tritrpticin Analogs Against Pathogenic Pseudomonas aeruginosa PA01 Strains” (Molecules, 2025)", "key": {"[1]": {"conditions": "cited from earlier work", "from_the_text": "(§1) Overall, our work highlights the potential of […] analogs in comparison to related Trp-rich AMPs as potent antibiofilm peptides that can interfere in biofilms produced by P. aeruginosa and potentially other Gram-negative pathogenic bacteria. New antibiofilm agents are welcome for this organism, as P. aeruginosa is well-known to have numerous mechanisms to elude the action of antibiotics during biofilm formation. Various factors can influence the suitability of AMPs to act as bactericidal and antibiofilm peptides simultaneously (for a general discussion see, for example, [74]). One ..."}, "S. aureus GFP [2]": {"system": "S. aureus GFP", "experiment": "MIC against planktonic cells, absorbance at 600 nm", "type": "cell-based, Staphylococcus aureus", "conditions": "Table 4; Sa GFP, 10% TSB and 0.1% glucose; absorbance 600 nm; mean of three biological replicates", "method_in_brief": "(§2)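 GFP-expressing S. aureus, triplicate biological replicates. MIC on planktonic cells by absorbance at 600 nm. MBIC and MBEC from biofilm GFP fluorescence (480/530 nm), with untreated growth and media-only controls.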"}, "[3]": {"system": "peripheral blood mononuclear cells (PBMCs)", "conditions": "cited from earlier work", "from_the_text": "as §1"}, "red blood cells": {"system": "red blood cells", "conditions": "cited from earlier work", "from_the_text": "as §1"}, "P. aeruginosa PAO1 [4]": {"system": "P. aeruginosa PAO1", "type": "cell-based", "conditions": "for MBIC (CV at 595 nm) LD50 / MBRC (CV at 595 nm) LD50: PAO1; for MBIC (CV at 595 nm) LD90 / MBRC (CV at 595 nm) LD90: Table 5, PAO1, 1x BM2, crystal violet at 595 nm, mean of three biological replicates; for MBRC (CV at 595 nm) LD90: minimum biofilm reduction concentration", "method_in_brief": "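Peptides tested against P. aeruginosa PAO1 in 1× BM2 medium; planktonic growth read at 600 nm for MIC. Biofilm inhibition and eradication quantified by 0.1% crystal violet staining (15 min), ethanol release, absorbance at 595 nm, plus GFP-fluorescence and Calgary peg-device methods; triplicate means.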"}, "S. aureus GFP [5]": {"system": "S. aureus GFP", "experiment": "MBEC, GFP fluorescence method", "type": "cell-based, Staphylococcus aureus", "conditions": "Table 4, Sa GFP, 10% TSB and 0.1% glucose, mean of three biological replicates", "method_in_brief": "as §2"}, "P. aeruginosa PAO1 GFP [6]": {"system": "P. aeruginosa PAO1 GFP", "experiment": "MBEC, biofilm eradication, GFP fluorescence method", "type": "cell-based, Pseudomonas aeruginosa", "conditions": "Table 2, BM2 medium, mean of three biological replicates", "method_in_brief": "(§3)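 GFP-expressing P. aeruginosa PAO1 exposed to peptides; planktonic MIC read by absorbance at 600 nm, while MBIC (prevention) and MBEC (eradication) used biofilm GFP fluorescence at 480/530 nm. Triplicate biological replicates averaged, with untreated growth and medium-only controls on each plate.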"}, "P. aeruginosa PAO1 GFP [7]": {"system": "P. aeruginosa PAO1 GFP", "experiment": "MBIC, prevention of biofilm formation, GFP fluorescence method", "type": "cell-based, Pseudomonas aeruginosa", "conditions": "Table 2, BM2 medium, mean of three biological replicates", "method_in_brief": "as §3"}, "P. aeruginosa PAO1 [8]": {"system": "P. aeruginosa PAO1", "type": "cell-based, Pseudomonas aeruginosa", "conditions": "Table 5; PAO1, 1x BM2; biofilms on pegs, cells plated and counted; three biological replicates", "method_in_brief": "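Biofilm eradication (MBEC) for peptides against P. aeruginosa PAO1 in 1× BM2 medium, from counts of biofilm cells; GFP-producing strain fluorescence, crystal violet staining and Calgary peg device also used. Three biological replicates, mean ± SD, with untreated growth and medium-only controls.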"}, "S. aureus GFP [9]": {"system": "S. aureus GFP", "experiment": "MBIC, GFP fluorescence method", "type": "cell-based, Staphylococcus aureus", "conditions": "Table 4, Sa GFP, 10% TSB and 0.1% glucose, mean of three biological replicates", "method_in_brief": "as §2"}, "P. aeruginosa PAO1 [10]": {"system": "P. aeruginosa PAO1", "type": "cell-based, Pseudomonas aeruginosa", "conditions": "Table 5; regular PAO1 (no GFP), 1x BM2; absorbance 600 nm; mean of three biological replicates", "method_in_brief": "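PAO1 tested with peptides in 1× BM2; planktonic growth read at 600 nm, biofilm quantified by 0.1% crystal violet staining (15 min), ethanol release and 595 nm reading, using a Calgary biofilm device. Values are means of three replicates with untreated-growth and medium-only controls.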"}, "S. aureus GFP [11]": {"system": "S. aureus GFP", "type": "cell-based, Staphylococcus aureus", "conditions": "Table 4; Sa GFP; lowest concentration of peptide with no bacterial growth seen on the spot agar plate"}, "P. aeruginosa PAO1 GFP [12]": {"system": "P. aeruginosa PAO1 GFP", "experiment": "MIC against planktonic cells, absorbance at 600 nm", "type": "cell-based, Pseudomonas aeruginosa", "conditions": "Table 2, BM2 medium, absorbance 600 nm, mean of three biological replicates", "method_in_brief": "as §3"}}, "note": "Residues, ends and D or L forms follow the SMILES beside them.", "data": [{"smiles": "NCC(N)C(=O)O", "note": "(centres unmarked) [Dap, 2,3-diaminopropionic acid]", "values": [{"measurement": "sidechain pKa value", "setting": "[1]", "result": 6.3}]}, {"smiles": "CC(C)C[C@H](NC(=O)[C@H](Cc1ccccc1)NC(=O)[C@H](C)NC(=O)[C@H](Cc1c[nH]c2ccccc12)NC(=O)[C@H](Cc1c[nH]c2ccccc12)NC(=O)[C@H](Cc1c[nH]c2ccccc12)NC(=O)[C@@H]1CCCN1C(=O)[C@H](Cc1ccccc1)NC(=O)[C@H](CCCNC(=N)N)NC(=O)[C@H](CCCNC(=N)N)NC(=O)[C@@H](N)C(C)C)C(=O)N[C@@H](CCCNC(=N)N)C(=O)N[C@@H](CCCNC(=N)N)C(N)=O", "note": "[Tritrp-P9A] (H-VRRFPWWWAFLRR-NH2)", "values": [{"measurement": "MIC at 600 nm LD50", "setting": "S. aureus GFP [2]", "result": 0.25, "unit": "µM"}, {"measurement": "MIC at 600 nm LD90", "setting": "S. aureus GFP [2]", "result": 1, "unit": "µM"}, {"measurement": "cytotoxicity activities against PBMCs", "setting": "[3]", "result": "quite strong"}, {"measurement": "hemolytic activity", "setting": "red blood cells", "result": "slightly more modest"}, {"measurement": "MBIC (CV at 595 nm) LD50", "setting": "P. aeruginosa PAO1 [4]", "result": 1, "unit": "µmol/L"}, {"measurement": "MBRC (CV at 595 nm) LD50", "setting": "P. aeruginosa PAO1 [4]", "result": 16, "unit": "µmol/L"}, {"measurement": "MBIC (CV at 595 nm) LD90", "setting": "P. aeruginosa PAO1 [4]", "result": 2, "unit": "µmol/L"}, {"measurement": "MBRC (CV at 595 nm) LD90", "setting": "P. aeruginosa PAO1 [4]", "result": 32, "unit": "µmol/L"}, {"measurement": "MBEC at 488 and 530 nm LD50", "setting": "S. aureus GFP [5]", "result": 0.5, "unit": "µmol/L"}, {"measurement": "MBEC at 488 and 530 nm LD90", "setting": "S. aureus GFP [5]", "result": 2, "unit": "µmol/L"}, {"measurement": "MBEC at 488 and 530 nm LD50", "setting": "P. aeruginosa PAO1 GFP [6]", "result": 4, "unit": "µmol/L"}, {"measurement": "MBEC at 488 and 530 nm LD90", "setting": "P. aeruginosa PAO1 GFP [6]", "result": 8, "unit": "µmol/L"}, {"measurement": "MBIC at 488 and 530 nm LD50", "setting": "P. aeruginosa PAO1 GFP [7]", "result": 0.25, "unit": "µmol/L"}, {"measurement": "MBIC at 488 and 530 nm LD90", "setting": "P. aeruginosa PAO1 GFP [7]", "result": 2, "unit": "µmol/L"}, {"measurement": "MBEC from Calgary Biofilm Device (CBD) LD50", "setting": "P. aeruginosa PAO1 [8]", "result": 8, "unit": "µmol/L"}, {"measurement": "MBEC from Calgary Biofilm Device (CBD) LD90", "setting": "P. aeruginosa PAO1 [8]", "result": 16, "unit": "µmol/L"}, {"measurement": "MBIC at 488 and 530 nm LD50", "setting": "S. aureus GFP [9]", "result": 0.25, "unit": "µmol/L"}, {"measurement": "MBIC at 488 and 530 nm LD90", "setting": "S. aureus GFP [9]", "result": 2, "unit": "µmol/L"}, {"measurement": "MIC at 600 nm LD50", "setting": "P. aeruginosa PAO1 [10]", "result": 2, "unit": "µM"}, {"measurement": "MIC at 600 nm LD90", "setting": "P. aeruginosa PAO1 [10]", "result": 2, "unit": "µM"}, {"measurement": "MBC Agar Plate", "setting": "S. aureus GFP [11]", "result": 2, "unit": "µM"}, {"measurement": "MIC at 600 nm LD50", "setting": "P. aeruginosa PAO1 GFP [12]", "result": 2, "unit": "µM"}, {"measurement": "MIC at 600 nm LD90", "setting": "P. aeruginosa PAO1 GFP [12]", "result": 2, "unit": "µM"}]}, {"smiles": "CC(C)C[C@H](NC(=O)[C@H](Cc1ccccc1)NC(=O)[C@H](C)NC(=O)[C@H](Cc1c[nH]c2ccccc12)NC(=O)[C@H](Cc1c[nH]c2ccccc12)NC(=O)[C@H](Cc1c[nH]c2ccccc12)NC(=O)[C@H](C)NC(=O)[C@H](Cc1ccccc1)NC(=O)[C@H](CCCNC(=N)N)NC(=O)[C@H](CCCNC(=N)N)NC(=O)[C@@H](N)C(C)C)C(=O)N[C@@H](CCCNC(=N)N)C(=O)N[C@@H](CCCNC(=N)N)C(N)=O", "note": "[Tritrp-P59A] (H-VRRFAWWWAFLRR-NH2)", "values": [{"measurement": "MIC at 600 nm LD50", "setting": "S. aureus GFP [2]", "result": 1, "unit": "µM"}, {"measurement": "MIC at 600 nm LD90", "setting": "S. aureus GFP [2]", "result": 2, "unit": "µM"}, {"measurement": "cytotoxicity activities against PBMCs", "setting": "[3]", "result": "quite strong"}, {"measurement": "hemolytic activity", "setting": "red blood cells", "result": "relatively strong"}, {"measurement": "MBIC (CV at 595 nm) LD50", "setting": "P. aeruginosa PAO1 [4]", "result": 4, "unit": "µmol/L"}, {"measurement": "MBRC (CV at 595 nm) LD50", "setting": "P. aeruginosa PAO1 [4]", "result": 32, "unit": "µmol/L"}, {"measurement": "MBIC (CV at 595 nm) LD90", "setting": "P. aeruginosa PAO1 [4]", "result": 4, "unit": "µmol/L"}, {"measurement": "MBRC (CV at 595 nm) LD90", "setting": "P. aeruginosa PAO1 [4]", "result": 32, "unit": "µmol/L"}, {"measurement": "MBEC at 488 and 530 nm LD50", "setting": "S. aureus GFP [5]", "result": 1, "unit": "µmol/L"}, {"measurement": "MBEC at 488 and 530 nm LD90", "setting": "S. aureus GFP [5]", "result": 2, "unit": "µmol/L"}, {"measurement": "MBEC at 488 and 530 nm LD50", "setting": "P. aeruginosa PAO1 GFP [6]", "result": 8, "unit": "µmol/L"}, {"measurement": "MBEC at 488 and 530 nm LD90", "setting": "P. aeruginosa PAO1 GFP [6]", "result": 16, "unit": "µmol/L"}, {"measurement": "MBIC at 488 and 530 nm LD50", "setting": "P. aeruginosa PAO1 GFP [7]", "result": 2, "unit": "µmol/L"}, {"measurement": "MBIC at 488 and 530 nm LD90", "setting": "P. aeruginosa PAO1 GFP [7]", "result": 4, "unit": "µmol/L"}, {"measurement": "MBEC from Calgary Biofilm Device (CBD) LD50", "setting": "P. aeruginosa PAO1 [8]", "result": 16, "unit": "µmol/L"}, {"measurement": "MBEC from Calgary Biofilm Device (CBD) LD90", "setting": "P. aeruginosa PAO1 [8]", "result": 32, "unit": "µmol/L"}, {"measurement": "MBIC at 488 and 530 nm LD50", "setting": "S. aureus GFP [9]", "result": 2, "unit": "µmol/L"}, {"measurement": "MBIC at 488 and 530 nm LD90", "setting": "S. aureus GFP [9]", "result": 2, "unit": "µmol/L"}, {"measurement": "MIC at 600 nm LD50", "setting": "P. aeruginosa PAO1 [10]", "result": 2, "unit": "µM"}, {"measurement": "MIC at 600 nm LD90", "setting": "P. aeruginosa PAO1 [10]", "result": 4, "unit": "µM"}, {"measurement": "MBC Agar Plate", "setting": "S. aureus GFP [11]", "result": 4, "unit": "µM"}, {"measurement": "MIC at 600 nm LD50", "setting": "P. aeruginosa PAO1 GFP [12]", "result": 2, "unit": "µM"}, {"measurement": "MIC at 600 nm LD90", "setting": "P. aeruginosa PAO1 GFP [12]", "result": 4, "unit": "µM"}]}]}
